According to EP0642343B1, “Acridine carboxamides for the treatment of cancer” (XENOVA LIMITED, priority 1992, dated 1993):
Where two headings read alike, the source gives them in different places.

Experiments:
human cell lines = experiment: Cytotoxicity under continuous drug exposure, mean over human cell lines; format: cell-based; settings: read-out: mean IC50 value for human cell lines
Method: The latter value compared with 2 µM for the 4-pyridyl-quinoline analogue, 0.76 µM for amsacrine, 0.1 µM for the amsacrine analogue 4'-(9-[4-[N-methylcarboxamido]-5-methyl]-acridinylamino)-methanesulphon-m-anisidide ("CI-921") and 81 µM for etoposide.

[1] = system: sublines of Jurkat leukaemia cells; experiment: Cross-resistance of Jurkat sublines selected for resistance to amsacrine; format: cell-based, human; settings: two lines selected for resistance to amsacrine
Method: Two of these lines had been selected for resistance to amsacrine, and were more than 100-fold cross-resistant to amsacrine but only 2- to 4-fold cross-resistant to DACA. […] We believe that this ability to overcome resistance mechanisms accounts for the different IC50 patterns observed with the human cell line panels.
Tumour cell lines were cultured in 96-well plates. […] Primary cultures were incubated at 37°C in sealed perspex boxes containing a humidified atmosphere of 5% CO2 and 5% O2 in nitrogen for 7 days. 5-Methyl-[^3H]-thymidine (20 Ci.mmol^-1; 0.04 µCi per well), thymidine and 5-fluorodeoxyuridine (each at final concentrations of 0.5 µM) were added in medium to cultures (20 µl per well) 24 h before terminating the cultures.
1989, 81:1088-1092, where growth, as indicated by staining or thymidine incorporation, corresponded to 50% of that of the control cultures.

[2] = system: advanced colon 38 tumours; experiment: Tumour growth delay, advanced subcutaneous colon 38 tumours in mice; format: in vivo
Method: Colon 38 carcinoma was obtained from the Mason Research Institute (Worchester, MA, USA) and was grown in BDF1 hosts. Tumour fragments (1 mm^3) were implanted subcutaneously in anaesthetised mice. Tumours had grown to the appropriate size 9 days after implantation. A melanoma tumour line (WADH) was developed in the Cancer Research Laboratory. Tumour cells were grown in culture and 1 x 10^6 cells were implanted intradermally into the flank of nude (C57BI/J genetic background) mice. Mice were grown under sterile surroundings until tumours were of appropriate size.
Tumours were measured 3x (colon 38) or 2x (xeno-graft) weekly with callipers and tumour volumes calculated as 0.52a^2b, where a and b were the minor and major tumour axes. Tumour growth delays were measured at a time when tumour volumes of treated and control animals had increased by 4-fold.
The effects of five compounds, • (i) DACA • (ii) N-[2-(dimethylamino)ethyl]-9-methoxyphen-azine-1-carboxamide (compound 28 of J. Med. Chem., 1987, 30, 843-851), • (iii) N-[2-(dimethylamino) ethyl]-2-phenylquino-line-8-carboxamide (compound 6 of J. Med. Chem. 1988, 31, 1048-1052), • (iv) N-[2-(dimethylamino)ethyl]-2-(4-pyridyl)-guinoline-8-carboxamide (compound 18 of J. Med. Chem., 1989, 32, 396-401), and • (v) N-[2-(dimethylamino)ethyl]-9-bromo-dibenzo-[1,4]-dioxin-1-carboxamide (compound 20 of J. Med. Chem. 1992, 35, 258-266) on the growth of advanced colon 38 tumours in mice was investigated by implanting tumour fragments subcutaneously and allowing them to grow until they had reached a diameter of 5-8 mm.

[3] = system: primary human melanoma cultures; experiment: cells; settings: for IC50: Homo sapiens, read-out: mean IC50
Method: Acridine carboxamide hydrochloride, synthesised in the Cancer Research Laboratory (Atwell G.J., et al., J.Med. Chem. 1987, 30, 664-669), and amsacrine isethionate, obtained from the Parke-Davis Division of the Warner-Lambert Company, Ann Arbor, USA, were dissolved in 50% v/v aqueous ethanol to make stock solutions of 2-5 mmol/l and stored at -20°C. Other cytotoxic drugs were available either from the NCI repository (Monks A., et al., J. Natl. Cancer Inst. 1991, 83, 757-766) or were obtained as described in Marshall E.S., et al., J. Natl. Cancer Inst. 1992, 84, 341-344 and Finlay, et al., Eur. J. Cancer din. Oncol. 1986, 22, 655-662. Cell lines were from the NCI repository except for MM-96 (Dr. R. Whitehead, Ludwig Institute, Melbourne, Australia), FME (Dr. K.M. Tveit, Norwegian Radium Hospital, Oslo, Norway) and Jurkat normal and multidrug-resistant lines (Dr. K. Snow and Dr. W. Judd, Department of Cellular and Molecular Biology, University of Auckland). Melanoma tissue was obtained from patients with pathologically confirmed metastatic and recurrent melanomas under Auckland Hospital Ethical Committee guidelines. Cells were released by digestion of tissue (at 50 mg.ml^-1) with collagenase (1 mg.ml^-1) and DNAase (50 µg.ml^-1) with continuous stirring at 37°C for 1 to 2 hours, and cultured as previously described (Marshall E.S., et al., J. Natl. Cancer Inst. 1992, 84, 341-344).
(§1) Tumour cell lines were cultured in 96-well plates. Growth of NCI cell lines was assessed using sulpho-rhodamine B staining (Skehan P., et al., J. Natl. Cancer Inst. 1990, 82, 1107-1112), that of the leukaemia lines with (4,5-dimethylthiazole-2-yl)-2,5-diphenyltetrazolium (MTT) staining (Mosmann T., J. Immun. Methods 1983, 65, 55-63) and that of the primary human tumour material by ^3H-thymidine incorporation (Marshall E.S., et al., J. Natl. Cancer Inst. 1992, 84, 341-344). Primary tumour material was cultured in 96-well plates in which the wells were coated with agarose to inhibit selectively the growth of normal cells. (Marshall E.S., et al., J. Natl. Cancer Inst. 1992, 84, 341-344). Primary cultures were incubated at 37°C in sealed perspex boxes containing a humidified atmosphere of 5% CO2 and 5% O2 in nitrogen for 7 days. 5-Methyl-[^3H]-thymidine (20 Ci.mmol^-1; 0.04 µCi per well), thymidine and 5-fluorodeoxyuridine (each at final concentrations of 0.5 µM) were added in medium to cultures (20 µl per well) 24 h before terminating the cultures. Cells were aspirated on to glass fibre filters using a multiple automated sample harvester (LKB Wallac OY Beta Harvester). The filter discs were washed for 15 seconds with water, dried, and the amount of tritium retained quantified by liquid scintillation.
(§2) IC50 values were defined as in Paull K.D., et al., J. Natl. Cancer Inst. 1989, 81:1088-1092, where growth, as indicated by staining or thymidine incorporation, corresponded to 50% of that of the control cultures. […] Variances of DELTA values were expressed as standard deviations in log10 units. Comparison of DELTA values was made using Pearson correlation coefficients. Resistance factors were defined as the ratios of IC50 values between the resistant line and the parent line. Statistical evaluation was performed either with NCI programmes, with RS/1 software (BBN Research Systems, Cambridge, MA, USA), or with Sigmaplot (Jandel Scientific, San Rafael, CA, USA).
DACA was also compared in a series of 12 primary melanoma cultures. Tissue was excised from human malignant melanomas and cultured using a modified 96-well assay system in which the cells were cultured on agarose and assayed for proliferation using the ^3H-thymidine incorporation assay as described in Marshall E.S., et al., J. Natl. Cancer Inst. 1992, 84, 341-344.

B1A = experiment: Resistance factor, drug-resistant Jurkat leukaemia subline; format: cell-based, human
Method: as §1, §2
(§3) The effect of DACA on the growth of cultured cells was assessed by continuous drug exposure. […] Four multidrug-resistant cell lines, developed from JL and JB1 by in vitro exposure to increasing concentrations of doxorubicin (LD and B1D) or amsacrine (LA and B1A) (Finlay G.J., et al., J. Natl. Cancer Inst. 1990, 82, 662-667, Snow K., et al., Br. J. Cancer 1991, 63, 17-28) were tested.
(§4) DACA was compared with six other drugs including four topo II poisons, doxorubicin, mitozantrone, etopo-side and amsacrine. […]

B1D = experiment: as above; format: cell-based, human
Method: as §1, §2, §3, §4

LA = experiment: as above; format: cell-based, human
Method: as §1, §2, §3, §4

LD = experiment: as above; format: cell-based, human
Method: as §1, §2, §3, §4

[4] = system: panel of cell lines encompassing a number of tumour types; experiment: NCI cell line panel, growth inhibition by protein staining; format: cell-based; settings: data provided by the National Cancer Institute
Method: as §1, §2

[5] = system: subcutaneous melanoma xenografts growing in nude mice; settings: summary given by Berger et al.; cited from earlier work
[6] = maximum tolerated dose of the comparison drug
[7] = B1A (from B1 by exposure to amsacrine), ratio of IC50 resistant line / parent line
[8] = B1D (from B1 by exposure to doxorubicin), ratio of IC50 resistant line / parent line
[9] = LA (from L by exposure to amsacrine), ratio of IC50 resistant line / parent line
[10] = LD (from L by exposure to doxorubicin), ratio of IC50 resistant line / parent line
[11] = human, jurkat leukaemia sublines
[12] = 100mg/kg each injection, ip, 2 doses, 0, 60 min

COc1cc(NS(C)(=O)=O)ccc1Nc1c2ccccc2nc2ccccc12 [amsacrine]
IC50 (human cell lines): 760 nM | cross-resistance [1]: more than 100 fold | Growth delay [2, 6]: 2 days | IC50 [3]: 128 nM | Resistance factors (B1A; [7]): 240 | Resistance factors (B1D; [8]): 8.8 | Resistance factors (LA; [9]): 130 | Resistance factors (LD; [10]): 110 | IC50 [4]: 520 nM

CC[C@]1(O)C[C@@H]2CN(CCc3c([nH]c4ccccc34)[C@@](C(=O)OC)(c3cc4c(cc3OC)N(C)[C@H]3[C@@](O)(C(=O)OC)[C@H](OC(C)=O)[C@]5(CC)C=CCN6CC[C@]43[C@@H]65)C2)C1 [Vinblastine]
Percentage of xenografts responding [5]: 10%

CC[C@]1(O)C[C@H]2CN(CCc3c([nH]c4ccccc34)[C@@](C(=O)OC)(c3cc4c(cc3OC)N(C=O)[C@H]3[C@@](O)(C(=O)OC)[C@H](OC(C)=O)[C@]5(CC)C=CCN6CC[C@]43[C@@H]65)C2)C1 [vincristine]
Resistance factors (B1A; [11]): 2.0 | Resistance factors (B1D; [11]): 10 | Resistance factors (LA; [11]): 1.5 | Resistance factors (LD; [11]): 3.6 | Percentage of xenografts responding [5]: 43%

COc1cc([C@@H]2c3cc4c(cc3[C@@H](O[C@@H]3O[C@@H]5CO[C@@H](C)O[C@H]5[C@H](O)[C@H]3O)[C@H]3COC(=O)[C@H]23)OCO4)cc(OC)c1O [etoposide]
IC50 (human cell lines): 81000 nM | IC50 [3]: 2200 nM | proportions of cells killed ([3]; human, primary melanoma cultures): ≤ 90% | Resistance factors (B1A; [11]): 22 | Resistance factors (B1D; [11]): 83 | Resistance factors (LA; [11]): 11 | Resistance factors (LD; [11]): 93 | IC50 [4]: 21000 nM | Percentage of xenografts responding [5]: 0% (2 studies)

Mitomycin C
Percentage of xenografts responding [5]: 32%

CC[C@@]1(O)C(=O)OCc2c1cc1n(c2=O)Cc2cc3ccccc3nc2-1 [camptothecin]
Resistance factors (B1A; [7]): 0.48 | Resistance factors (B1D; [8]): 0.86 | Resistance factors (LA; [9]): 1.0 | Resistance factors (LD; [10]): 0.97

CN(Cc1cnc2nc(N)nc(N)c2n1)c1ccc(C(=O)N[C@@H](CCC(=O)O)C(=O)O)cc1 [Methotrexate]
Percentage of xenografts responding [5]: 7%

COc1cccc2c1C(=O)c1c(O)c3c(c(O)c1C2=O)C[C@@](O)(C(=O)CO)C[C@@H]3O[C@H]1C[C@H](N)[C@H](O)[C@H](C)O1 [doxorubicin]
IC50 [3]: 56 nM | Resistance factors (B1A; [11]): 11 | Resistance factors (B1D; [11]): 15 | Resistance factors (LA; [11]): 3.8 | Resistance factors (LD; [11]): 16 | IC50 [4]: 140 nM | Percentage of xenografts responding [5]: 5% (total of 5 studies)

N.N.[Cl][Pt][Cl] [Cisplatin]
Percentage of xenografts responding [5]: 13%

Bleomycin
Percentage of xenografts responding [5]: 0%

O=C1c2c(O)ccc(O)c2C(=O)c2c(NCCNCCO)ccc(NCCNCCO)c21 [mitoxantrone]
Resistance factors (B1A; [7]): 59 | Resistance factors (B1D; [8]): 8.4 | Resistance factors (LA; [9]): 42 | Resistance factors (LD; [10]): 160

CN(C)CCNC(=O)c1cccc2c1Oc1c(Br)cccc1O2 [(v), N-[2-(dimethylamino)ethyl]-9-bromo-dibenzo-[1,4]-dioxin-1-carboxamide]
Growth delay [2, 12]: 7 days

CN(C)CCNC(=O)c1cccc2ccc(-c3ccccc3)nc12 [(iii), N-[2-(dimethylamino)ethyl]-2-phenylquino-line-8-carboxamide]
Growth delay ([2]; 75mg/kg each injection, ip, 2 doses, 0,60 min): 8.5 days

O=c1[nH]cc(F)c(=O)[nH]1 [5-fluorouracil, reference compound]
Growth delay [2, 6]: 13 days | Percentage of xenografts responding [5]: 14%

COc1cccc2nc3cccc(C(=O)NCCN(C)C)c3nc12 [(ii), N-[2-(dimethylamino)ethyl]-9-methoxyphen-azine-1-carboxamide]
Growth delay (days) [2, 12]: 5,5 (2 expts) days

CN(C)CCNC(=O)c1cccc2ccc(-c3ccncc3)nc12 [(iv), N-[2-(dimethylamino)ethyl]-2-(4-pyridyl)-guinoline-8-carboxamide]
IC50 (human cell lines; continuous drug exposure over approx. 5 cell doubling times): 2000 nM | Growth delay ([2]; 50mg/kg each injection, ip, 2 doses, 0,60 min): 5 days

CNC(=O)c1cccc2c(Nc3ccc(NS(C)(=O)=O)cc3OC)c3cccc(C)c3nc12 [CI-921, 4'-(9-[4-[N-methylcarboxamido]-5-methyl]-acridinylamino)-methanesulphon-m-anisidide]
IC50 (human cell lines): 100 nM

O=P1(N(CCCl)CCCl)NCCCO1 (centres unmarked) [cyclophosphamide, reference compound]
Growth delay [2, 6]: 6.5 days | Percentage of xenografts responding [5]: 11%
